The supplement of paper PMC11061612

Tests used:
Trametinib = compound: CC(=O)Nc1cccc(-n2c(=O)n(C3CC3)c(=O)c3c(Nc4ccc(I)cc4F)n(C)c(=O)c(C)c32)c1 [Trametinib]; details: max 1 µM
Procedure, shortened: (§1)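 Cancer cell lines were seeded into 1536-well plates in 7.5 μl medium (DMEM/F12 or RPMI, 10% FBS), held 24 hours at 37°C and 5% CO2, and dosed for 72 hours with final DMSO typically 0.2%. Luminescence from CellTiter-Glo 2.0, scaled between blank-well and DMSO-well means, served as viability. The single-agent IC50 was obtained from dose-response fits with a non-linear mixed effects model, each fit being a two-parameter logistic curve.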

MK-2206 = compound: NC1(c2ccc(-c3nc4ccn5c(=O)[nH]nc5c4cc3-c3ccccc3)cc2)CCC1 [MK-2206]; details: max 10 µM
Procedure, shortened: as §1

AZD7648 = compound: Cc1cc2ncnn2cc1Nc1ncc2c(n1)n(C1CCOCC1)c(=O)n2C [AZD7648]; details: max 10 µM
Procedure, shortened: as §1

[1] = compound: O=C(Nc1ccc2[nH]nc(-c3ccncc3)c2c1)[C@@H]1CCN(CC(=O)N2CCN(c3ccc(-c4ncccn4)cc3)CC2)C1; details: max 5 µM
Procedure, shortened: as §1

AZD5363 = compound: C1CN(CCC1(C(=O)N[C@@H](CCO)C2=CC=C(C=C2)Cl)N)C3=NC=NC4=C3C=CN4 [AZD5363]; details: max 10 µM
Procedure, shortened: as §1

AZD6738 = compound: C[C@@H]1COCCN1C2=NC(=NC(=C2)C3(CC3)[S@](=N)(=O)C)C4=C5C=CNC5=NC=C4 [AZD6738]; details: max 10 µM
Procedure, shortened: as §1

Crizotinib = compound: C[C@@H](Oc1cc(-c2cnn(C3CCNCC3)c2)cnc1N)c1c(Cl)ccc(F)c1Cl [Crizotinib]; details: max 10 µM
Procedure, shortened: as §1

AZD5991 = compound: Cc1c2c(nn1C)CSCc1cc(n(C)n1)CSc1cc(c3ccccc3c1)OCCCc1c(C(=O)O)n(C)c3c-2c(Cl)ccc13 [AZD5991]; details: max 1 µM
Procedure, shortened: as §1

Taselisib = compound: Cc1nc(-c2cn3c(n2)-c2ccc(-c4cnn(C(C)(C)C(N)=O)c4)cc2OCC3)n(C(C)C)n1 [Taselisib]; details: max 10 µM
Procedure, shortened: as §1

Lapatinib = compound: CS(=O)(=O)CCNCc1ccc(-c2ccc3ncnc(Nc4ccc(OCc5cccc(F)c5)c(Cl)c4)c3c2)o1 [Lapatinib]; details: max 10 µM
Procedure, shortened: as §1

SG3199 = compound: CC1=CN2[C@@H](C1)C=NC3=CC(=C(C=C3C2=O)OC)OCCCCCOC4=C(C=C5C(=C4)N=C[C@@H]6CC(=CN6C5=O)C)OC [SG3199]; details: max 0.001 µM
Procedure, shortened: as §1

5-Fluorouracil = compound: O=c1[nH]cc(F)c(=O)[nH]1 [5-Fluorouracil]; details: max 20 µM
Procedure, shortened: as §1

AZD0156 = compound: CN(C)CCCOc1ccc(-c2ccc3ncc4c(c3c2)n(C2CCOCC2)c(=O)n4C)cn1 [AZD0156]; details: max 3 µM
Procedure, shortened: as §1

Olaparib = compound: O=C(c1cc(Cc2n[nH]c(=O)c3ccccc23)ccc1F)N1CCN(C(=O)C2CC2)CC1 [Olaparib]; details: max 10 µM
Procedure, shortened: as §1

Savolitinib = compound: C[C@@H](c1ccc2nccn2c1)n1nnc2ncc(-c3cnn(C)c3)nc21 [Savolitinib]; details: max 1 µM
Procedure, shortened: as §1

Palbociclib = compound: CC(=O)c1c(C)c2cnc(Nc3ccc(N4CCNCC4)cn3)nc2n(C2CCCC2)c1=O [Palbociclib]; details: max 10 µM
Procedure, shortened: as §1

AZD1775 = compound: C=CCn1c(=O)c2cnc(Nc3ccc(N4CCN(C)CC4)cc3)nc2n1-c1cccc(C(C)(C)O)n1 [AZD1775]; details: max 3 µM
Procedure, shortened: as §1

AZD2811 = compound: CCN(CCO)CCCOc1ccc2c(Nc3cc(CC(=O)Nc4cccc(F)c4)[nH]n3)ncnc2c1 [AZD2811]; details: max 1 µM
Procedure, shortened: as §1

Selumetinib = compound: Cn1cnc2c(F)c(Nc3ccc(Br)cc3Cl)c(C(=O)NOCCO)cc21 [Selumetinib]; details: max 10 µM
Procedure, shortened: as §1

Carboplatin = compound: C1CC(C1)(C(=O)[O-])C(=O)[O-].N.N.[Pt+2] [Carboplatin]; details: max 10 µM
Procedure, shortened: as §1

Dasatinib = compound: CC1=C(C(=CC=C1)Cl)NC(=O)C2=CN=C(S2)NC3=CC(=NC(=N3)C)N4CCN(CC4)CCO [Dasatinib]; details: max 2 µM
Procedure, shortened: as §1

AZD4320 = compound: CN(CC[C@H](CSC1=CC=CC=C1)NC2=C(C=C(C=C2)S(=O)(=O)NC(=O)C3=CC=C(C=C3)N4CCC(CC4)[C@H](C5=CC=CC=C5C6=CC=C(C=C6)Cl)O)S(=O)(=O)C(F)(F)F)CCO [AZD4320]; details: max 1 µM
Procedure, shortened: as §1

Prexasertib = compound: COc1cccc(OCCCN)c1-c1cc(Nc2cnc(C#N)cn2)n[nH]1 [Prexasertib]; details: max 1 µM
Procedure, shortened: as §1

SN-38 = compound: CCc1c2c(nc3ccc(O)cc13)-c1cc3c(c(=O)n1C2)COC(=O)[C@]3(O)CC [SN-38]; details: max 0.3 µM
Procedure, shortened: as §1

Gefitinib = compound: COc1cc2ncnc(Nc3ccc(F)c(Cl)c3)c2cc1OCCCN1CCOCC1 [Gefitinib]; details: max 10 µM
Procedure, shortened: as §1

Etoposide = compound: COc1cc([C@@H]2c3cc4c(cc3[C@@H](O[C@@H]3O[C@@H]5CO[C@@H](C)O[C@H]5[C@H](O)[C@H]3O)[C@H]3COC(=O)[C@H]23)OCO4)cc(OC)c1O [Etoposide]; details: max 10 µM
Procedure, shortened: as §1

Doxorubicin = compound: COc1cccc2c1C(=O)c1c(O)c3c(c(O)c1C2=O)C[C@@](O)(C(=O)CO)C[C@@H]3O[C@H]1C[C@H](N)[C@H](O)[C@H](C)O1 [Doxorubicin]; details: max 1 µM
Procedure, shortened: as §1

Venetoclax = compound: CC1(C)CCC(CN2CCN(c3ccc(C(=O)NS(=O)(=O)c4ccc(NCC5CCOCC5)c([N+](=O)[O-])c4)c(Oc4cnc5[nH]ccc5c4)c3)CC2)=C(c2ccc(Cl)cc2)C1 [Venetoclax]; details: max 1 µM
Procedure, shortened: as §1

AZD5153 = compound: COc1nnc2ccc(N3CCC(c4ccc(OCCN5CCN(C)C(=O)[C@H]5C)cc4)CC3)nn12 [AZD5153]; details: max 1 µM
Procedure, shortened: as §1

SRA737 = compound: N#Cc1cnc(Nc2cc(NC[C@H]3CNCCO3)c(C(F)(F)F)cn2)cn1 [SRA737]; details: max 10 µM
Procedure, shortened: as §1

Gemcitabine = compound: Nc1ccn([C@@H]2O[C@H](CO)[C@@H](O)C2(F)F)c(=O)n1 [Gemcitabine]; details: max 0.3 µM
Procedure, shortened: as §1

AZD1390 = compound: CC(C)n1c(=O)n(C)c2cnc3cc(F)c(-c4ccc(OCCCN5CCCCC5)nc4)cc3c21 [AZD1390]; details: max 0.3 µM
Procedure, shortened: as §1

AZD8186 = compound: C[C@@H](Nc1cc(F)cc(F)c1)c1cc(C(=O)N(C)C)cc2c(=O)cc(N3CCOCC3)oc12 [AZD8186]; details: max 10 µM
Procedure, shortened: as §1

Alisertib = compound: COc1cc(Nc2ncc3c(n2)-c2ccc(Cl)cc2C(c2c(F)cccc2OC)=NC3)ccc1C(=O)O [Alisertib]; details: max 10 µM
Procedure, shortened: as §1

Paclitaxel = compound: CC(=O)O[C@H]1C(=O)[C@@]2(C)[C@H]([C@H](OC(=O)c3ccccc3)[C@]3(O)C[C@H](OC(=O)[C@H](O)[C@@H](NC(=O)c4ccccc4)c4ccccc4)C(C)=C1C3(C)C)[C@]1(OC(C)=O)CO[C@@H]1C[C@@H]2O [Paclitaxel]; details: max 3 µM
Procedure, shortened: as §1

Cell Line	IC50, cell viability 72 h (Trametinib) [nM]	IC50, cell viability 72 h (MK-2206) [nM]	IC50, cell viability 72 h (AZD7648) [nM]	IC50, cell viability 72 h [1] [nM]	IC50, cell viability 72 h (AZD5363) [nM]	IC50, cell viability 72 h (AZD6738) [nM]	IC50, cell viability 72 h (Crizotinib) [nM]	IC50, cell viability 72 h (AZD5991) [nM]	IC50, cell viability 72 h (Taselisib) [nM]	IC50, cell viability 72 h (Lapatinib) [nM]	IC50, cell viability 72 h (SG3199) [nM]	IC50, cell viability 72 h (5-Fluorouracil) [nM]	IC50, cell viability 72 h (AZD0156) [nM]	IC50, cell viability 72 h (Olaparib) [nM]	IC50, cell viability 72 h (Savolitinib) [nM]	IC50, cell viability 72 h (Palbociclib) [nM]	IC50, cell viability 72 h (AZD1775) [nM]	IC50, cell viability 72 h (AZD2811) [nM]	IC50, cell viability 72 h (Selumetinib) [nM]	IC50, cell viability 72 h (Carboplatin) [nM]	IC50, cell viability 72 h (Dasatinib) [nM]	IC50, cell viability 72 h (AZD4320) [nM]	IC50, cell viability 72 h (Prexasertib) [nM]	IC50, cell viability 72 h (SN-38) [nM]	IC50, cell viability 72 h (Gefitinib) [nM]	IC50, cell viability 72 h (Etoposide) [nM]	IC50, cell viability 72 h (Doxorubicin) [nM]	IC50, cell viability 72 h (Venetoclax) [nM]	IC50, cell viability 72 h (AZD5153) [nM]	IC50, cell viability 72 h (SRA737) [nM]	IC50, cell viability 72 h (Gemcitabine) [nM]	IC50, cell viability 72 h (AZD1390) [nM]	IC50, cell viability 72 h (AZD8186) [nM]	IC50, cell viability 72 h (Alisertib) [nM]	IC50, cell viability 72 h (Paclitaxel) [nM]
KYSE-220 (Esophageal Squamous Cell Carcinoma)	287	> 10000	> 10000	> 5000	> 10000	1190	5480	> 1000	1220	4250	> 1	> 20000	> 3000	> 10000	> 1000	> 10000	355	> 1000	9200	> 10000	> 2000	> 1000	16.3	17.5	> 10000	2520	94.3	> 1000	358	> 10000	33	> 300	> 10000	9200	42.4
HCC1395 (Breast Carcinoma)	> 1000	> 10000	> 10000	> 5000	> 10000	2790	> 10000	> 1000	> 10000	> 10000	> 1	> 20000	> 3000	> 10000	> 1000	> 10000	965	> 1000	> 10000	> 10000	> 2000	> 1000	9.08	173	> 10000	> 10000	> 1000	> 1000	> 1000	2950	> 300	> 300	> 10000	> 10000	206
MDA-MB-436 (Breast Carcinoma)	> 1000	> 10000	> 10000	> 5000	> 10000	> 10000	> 10000	> 1000	> 10000	> 10000	> 1	> 20000	> 3000	> 10000	> 1000	> 10000	> 3000	> 1000	> 10000	> 10000	> 2000	> 1000	> 1000	207	> 10000	> 10000	> 1000	> 1000	> 1000	> 10000	> 300	> 300	> 10000	> 10000	> 3000
NCI-H1651 (Lung Adenocarcinoma)	> 1000	> 10000	> 10000	> 5000	> 10000	> 10000	> 10000	> 1000	> 10000	> 10000	> 1	> 20000	> 3000	> 10000	> 1000	> 10000	779	> 1000	> 10000	> 10000	> 2000	> 1000	83.1	22.1	> 10000	6010	788	> 1000	> 1000	> 10000	> 300	> 300	> 10000	> 10000	21.7
JHU-022 (Oral Cavity Carcinoma)	219	> 10000	> 10000	2720	> 10000	> 10000	> 10000	> 1000	515	1930	> 1	> 20000	> 3000	> 10000	> 1000	> 10000	1640	> 1000	5560	> 10000	431	> 1000	94.4	35.7	811	> 10000	505	> 1000	> 1000	> 10000	278	> 300	> 10000	> 10000	2090
